Laboratory results published in patent US12403114B2, “Cannabinoid acid ester compositions and uses thereof” (EPM (IP), INC., priority 2019, dated 2025).

Assays:
[1] = tested on: DSS induced acute colitis; test: DSS induced acute colitis mouse model, EPM-301 versus EPM-302, Example 13; assay type: in vivo, C57BL/6 mice
Procedure: Colitis was induced in 10 weeks old female C57BL/6 mice using dextran sodium sulphate (DSS). Mice were fed for 8 days with 2% (wt/vol) DSS in their drinking water. […] EPM-302 served as an additional control.
Weight loss was measured on days 1, 3, 5, 8, and 10.
Next, the mice were sacrificed and the length of their colons were measured.
Cytokine levels of IL-6 and TNFα were measured using ELISA kits (R&D Systems, USA). Colon TNFα (FIG. 19), blood IL-6 (FIG. 20), levels were lower in mice treated with CBDA-Me (EPM-301) as compared to EPM-302. Similarly, the MEICS score of EPM-301 treated subjects were also lower than EPM-302 treated subjects (FIG. 21). Representative photos of colonoscopy can be seen in FIG. 22A-22D.

[2] = tested on: diet-induced obesity (DIO); test: Diet-induced obese (DIO) mice on high-fat diet, metabolic profile; assay type: in vivo, C57Bl/6 mice
Description: The experimental protocol used was approved by the Institutional Animal Care and Use Committee of the Hebrew University, which is an AAALAC International accredited institute. Male 6-week-old C57Bl/6 mice were obtained from Harlan Laboratories. Mice were maintained under a 12-h light/dark cycle and fed ad libitum. To generate diet-induced obesity, the mice were fed either a high-fat diet (HFD) (60% of calories from fat, 20% from protein, and 20% from carbohydrates; Research Diet, D12492) or a standard laboratory diet (STD, 14% fat, 24% protein, 62% carbohydrates; NIH-31 rodent diet) for 14 weeks.
HFD-fed obese mice received vehicle (1% Tween80, 4% DMSO, 95% Saline) or CBDA-ME daily for 28 days by intraperitoneal (ip) injections of 40 mg/kg. Age-matched control mice on STD received vehicle daily. Body weight and food intake were monitored daily. Total body fat and lean masses were determined by EchoMRI-100H™ (Echo Medical Systems LLC, Houston, Tex., USA). 24 h urine was collected one week before euthanasia using mouse metabolic cages (CCS2000 Chiller System, Hatteras Instruments, NC, USA). At weeks 20, mice were euthanized by a cervical dislocation under deep anesthesia, the kidneys, liver, fat pads, and muscles were removed and weighed, and samples were either snap-frozen or fixed in buffered 4% formalin. Trunk blood was collected for determining the biochemical parameters.
The experimental protocol used Metabolic profile of the mice was assessed by using the Promethion High-Definition Behavioral Phenotyping System (Sable Instruments, Inc., Las Vegas, Nev., USA). Data acquisition and instrument control were performed using MetaScreen software version 2.2.18.0, and the obtained raw data were processed using ExpeData version 1.8.4 using an analysis script detailing all aspects of data transformation. Mice with free access to food and water were subjected to a standard 12 h light/12 h dark cycle, which consisted of a 48 h acclimation period followed by 24 h of sampling. Respiratory gases were measured by using the GA-3 gas analyzer (Sable Systems, Inc., Las Vegas, Nev., USA) using a pull-mode, negative-pressure system. Air flow was measured and controlled by FR-8 (Sable Systems, Inc., Las Vegas, Nev., USA), with a set flow rate of 2000 mL/min. Water vapor was continuously measured and its dilution effect on O2 and CO2 was mathematically compensated. Effective mass was calculated by [body mass]^0.75. Fat oxidation (FO) and carbohydrate oxidation (CHO) were calculated as FO=1.69×VO2−1.69×VCO2 and CHO=4.57×VCO2−3.23×VO2 and expressed as g/d/kg^eff.Mass.
Locomotor activity was quantified by the number of disruptions of infrared XYZ beam arrays with a beam spacing of 0.25 cm in the Promethion High-Definition Behavioral Phenotyping System (Sable Instruments, Inc., Las Vegas, Nev., USA).
Mice that fasted overnight were injected with glucose (1.5 g/kg, ip), followed by a tail blood collection at 0, 15, 30, 45, 60, 90, and 120 minutes. Blood glucose levels were determined using the Elite glucometer (Bayer, Pittsburgh, Pa.).
Serum and urine levels of creatinine as well as serum levels of cholesterol, triglycerides (TG), high-density lipoprotein (HDL), low-density lipoprotein (LDL), alanine aminotransferase (ALT), aspartate aminotransferase (AST), and alkaline phosphatase (ALP) were determined using the Cobas C-111 chemistry analyzer (Roche, Switzerland) […]. Creatinine clearance was calculated using urine and serum creatinine levels (CCr mL/h=Urine creatinine mg/dL×Urine volume/Serum creatinine mg/dL×24 hrs). Fasting blood glucose was measured using the Elite glucometer (Bayer, Pittsburgh, Pa.).
Liver tissues were extracted as described previously (Tam, J., et al., Cell Metab, 2012. 16(2): p. 167-79) and its triglyceride content was determined using the EnzyChrom™ Triglyceride Assay Kit (BioAssay Systems). […]

[3] = HFD mice, 40 mg/kg/d ip for 28 days
[4] = HFD mice, 40 mg/kg/d ip for 28 days (FIG. 30)
[5] = obesity related hepatocellular injury (FIG. 28)

C=C(C)[C@@H]1CCC(C)=CC1c1c(O)cc(CCCCC)c(C(=O)OC)c1O (stereo partly shown) [EPM-301, cannabidiolic acid methyl ester]
therapeutic effect ([1]; 10 mg/kg): not enough to induce a therapeutic effect | weight loss ([1]; 40 mg/kg by gavage, compared to CBD and EPM-302 (FIG. 17)): reduced | colon length ([1]; 40 mg/kg, versus EPM-302 and untreated mice, similar to prednisone (FIG. 18)): greater/longer | colon TNFα ([1]; as compared to EPM-302, ELISA (FIG. 19)): lower | blood IL-6 ([1]; as compared to EPM-302, ELISA (FIG. 20)): lower | MEICS score ([1]; versus EPM-302 treated subjects (FIG. 21)): lower | HDL-cholesterol [2, 3]: without changing | LDL-cholesterol [2, 3]: reduced | overweight (body weight) ([2]; HFD mice, 40 mg/kg/d ip for 28 days (FIG. 23A)): significantly reduced | adiposity (fat mass) ([2]; HFD mice, 40 mg/kg/d ip for 28 days (FIG. 23B)): significantly reduced | lean body mass ([2]; HFD mice, 40 mg/kg/d ip for 28 days (FIG. 23C)): without affecting | leptin levels ([2]; HFD mice, 40 mg/kg/d ip for 28 days (FIG. 23D)): reduction | total ambulatory activity ([2]; HFD mice, 40 mg/kg/d ip for 28 days (FIG. 25B)): without changing | HFD-induced hypertriglyceridemia (serum triglycerides) ([2]; HFD mice, 40 mg/kg/d ip for 28 days (FIG. 26A)): significantly reduced | HFD-induced hypercholesterinemia (serum cholesterol) ([2]; HFD mice, 40 mg/kg/d ip for 28 days (FIG. 26B)): significantly reduced | ratio between HDL to LDL ([2]; HFD mice, 40 mg/kg/d ip for 28 days (FIG. 26C)): Increased | fasting glucose levels ([2]; HFD mice, 40 mg/kg/d ip for 28 days (FIG. 27A)): no change | HFD-induced hepatic steatosis: elevated hepatic triglyceride levels ([2]; HFD mice, 40 mg/kg/d ip for 28 days (FIG. 29A)): completely attenuated | HFD-induced hepatic steatosis: increased fat vacuoles in the liver ([2]; HFD mice, 40 mg/kg/d ip for 28 days (FIG. 29B)): completely attenuated | HFD-induced kidney hypofiltration (creatinine clearance) [2, 4]: completely normalized | reduction in urine excretion-to-water consumption ratio [2, 4]: completely normalized | glucose intolerance (ip glucose tolerance test) ([2]; glucose 1.5 g/kg ip after overnight fast (FIG. 27B-27D)): significant reduction | utilization of fat (fat oxidation) ([2]; indirect calorimetry, similar to lean mice on STD (FIG. 24A)): downregulate | carbohydrate oxidation ([2]; indirect calorimetry, similar to lean mice on STD (FIG. 24B)): upregulate | serum levels of ALP [2, 5]: reduction | serum levels of ALT [2, 5]: reduction | serum levels of AST [2, 5]: reduction | ability to run on a wheel ([2]; similar to STD-fed animals (FIG. 25A)): increased ability
